Source: US8889704B2 (Array BioPharma Inc., priority 2011, dated 2014)
Where a name gives a salt, the structure may show the parent alone.

Legend:
Assay type in all cases: biochemical
[1] = molecular target: PIM-1 (Homo sapiens, UniProt P11309); assay: Enzyme PIM-1 Assay ([33P]ATP incorporation into PIM2tide, filter plate); conditions: averaged IC50; 35 μM ATP, 7.5 μM PIM2tide, 0.25 nM PIM-1, 60 min at 22° C.
Summary of the method: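 Ten-point, 3-fold dilution series (10 μM top, 2% DMSO final) tested for inhibition of 33P transfer from 35 μM ATP to 7.5 μM PIM2tide by 0.25 nM PIM-1. Reaction 60 min, 22 °C, pH 7.4 MOPS/MgCl2 buffer; phosphocellulose capture, scintillation counting, IC50 where fitted POC equals 50.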

[2] = molecular target: T1, GST-tagged recombinant full-length human Pim-2 (Homo sapiens, UniProt Q9P1W9); assay: PIM-2 Assay (as Example A); conditions: averaged IC50; 4 μM ATP, 1.0 μM PIM2tide, 1.5 nM Pim-2
T1 construct: GST-tagged recombinant full-length human Pim-2; GST
T1 sequence (Q9P1W9 whole entry): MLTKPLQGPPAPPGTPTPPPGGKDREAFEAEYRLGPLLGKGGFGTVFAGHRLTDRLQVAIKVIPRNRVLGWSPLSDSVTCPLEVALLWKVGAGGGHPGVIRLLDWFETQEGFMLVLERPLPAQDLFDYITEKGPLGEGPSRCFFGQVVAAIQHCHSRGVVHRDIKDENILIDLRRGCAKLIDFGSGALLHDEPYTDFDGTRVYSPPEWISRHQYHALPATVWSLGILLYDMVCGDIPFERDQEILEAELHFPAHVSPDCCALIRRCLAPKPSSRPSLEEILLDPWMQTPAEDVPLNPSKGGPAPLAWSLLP
Summary of the method: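 IC50 was derived by 4-parameter logistic fitting of percent-of-control data over a 10-point, 3-fold series (highest 10 μM, 2% DMSO). Reactions held 1.5 nM GST-Pim-2 (full-length, human), 4 μM [γ-33P]ATP and 1.0 μM PIM2tide for 60 min at 22 °C, pH 7.4; 33P-peptide captured on P81 filters.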

[3] = molecular target: recombinant rat PIM-3 (Rattus norvegicus, UniProt O70444); assay: PIM-3 Assay (as Example A); conditions: averaged IC50; 30 μM ATP, 3.75 μM PIM2tide, 0.5 nM PIM-3
Summary of the method: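 33P incorporation from 30 μM [γ-33P]ATP into 3.75 μM PIM2tide by 0.5 nM rat PIM-3, 60 min at 22 °C in pH 7.4 MOPS buffer, read by P81 filter capture and scintillation counting. Compounds tested in 3-fold dilutions up to 10 μM final, 2% DMSO; percent-of-control data fitted by 4-parameter logistic for IC50.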

Chain of PIM-1 (P11309 whole entry, species assumed): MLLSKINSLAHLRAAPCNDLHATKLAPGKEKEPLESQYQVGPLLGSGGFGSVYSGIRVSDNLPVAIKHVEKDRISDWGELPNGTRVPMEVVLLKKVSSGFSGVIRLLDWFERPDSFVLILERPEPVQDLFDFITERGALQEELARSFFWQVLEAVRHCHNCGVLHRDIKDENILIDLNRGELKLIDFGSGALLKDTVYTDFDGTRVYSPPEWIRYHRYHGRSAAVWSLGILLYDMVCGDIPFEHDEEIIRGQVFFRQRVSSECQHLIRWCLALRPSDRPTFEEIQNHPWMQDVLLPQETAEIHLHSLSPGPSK

IC50 [1] [nM]	IC50 [2] [nM]	IC50 [3] [nM]	Structure (SMILES)
1.33	> 100	8.9	COCCc1ccc2ccc(-c3nnc4ccc([C@@H](N5CC[C@H](N)C5)C(F)(F)F)cn34)nc2c1F [Example 166, (S)-1-((R)-2,2,2-trifluoro-1-(3-(8-fluoro-7-(2-methoxyethyl)quinolin-2-yl)-[1,2,4]triazolo[4,3-a]pyridin-6-yl)ethyl)pyrrolidin-3-amine dihydrochloride]
2.77	861	11	CCC1(N)CCN([C@@H](c2ccc3nnc(-c4ccc5cccc(OC)c5n4)n3c2)C(F)(F)F)C1 (single isomer, unassigned; diastereomer 1) [Example 250, dihydrochloride]
0.38	138	0.4	Cc1c(-c2cnn(C)c2C)ccc2ccc(-c3nnc4ccc([C@@H](N5CC[C@H](N)C5)C(F)(F)F)cn34)nc12 [Example 214, (3S)-1-((1R)-1-(3-(7-(1,5-dimethyl-1H-pyrazol-4-yl)-8-methylquinolin-2-yl)-[1,2,4]triazolo[4,3-a]pyridin-6-yl)-2,2,2-trifluoroethyl)pyrrolidin-3-amine dihydrochloride]
0.6	> 100	0.7	CN[C@H]1CCN([C@H](c2ccc3nnc(-c4ccc5ccc(C(=O)NC(C)(C)C)cc5n4)n3c2)C(F)(F)F)C1 [Example 58, N,N-tert-butyl-2-(6-((R)-2,2,2-trifluoro-1-((S)-3-(methylamino)pyrrolidin-1-yl)ethyl)-[1,2,4]triazolo[4,3-a]pyridin-3-yl)quinoline-7-carboxamide]
0.47	> 100	3	COCCOc1cc2nc(-c3nnc4ccc([C@@H](N5CC[C@H](N)C5)C(F)(F)F)cn34)ccc2cc1F [Example 120, (S)-1-((R)-2,2,2-trifluoro-1-(3-(6-fluoro-7-(2-methoxyethoxy)quinolin-2-yl)-[1,2,4]triazolo[4,3-a]pyridin-6-yl)ethyl)pyrrolidin-3-amine hydrochloride]
0.31	588	1.36	COCCOc1ccc2cc(F)c(-c3nnc4ccc([C@@H](N5CC[C@H](N)C5)C(F)(F)F)cn34)nc2c1 [Example 326, (S)-1-((R)-2,2,2-trifluoro-1-(3-(3-fluoro-7-(2-methoxyethoxy)quinolin-2-yl)-[1,2,4]triazolo[4,3-a]pyridin-6-yl)ethyl)pyrrolidin-3-amine]
1.15	5700	6.1	N[C@H]1CCN(C(c2ccc3nnc(-c4ccc5cc(F)c(OCCOC(=O)c6ccccc6)cc5n4)n3c2)C(F)(F)F)C1 (stereo in doubt) [Example 313, 2-((2-(6-((R)-1-((S)-3-aminopyrrolidin-1-yl)-2,2,2-trifluoroethyl)-[1,2,4]triazolo[4,3-a]pyridin-3-yl)-6-fluoroquinolin-7-yl)oxy)ethyl benzoate]
0.18	194	0.7	C[C@@H](O)COc1cccc2ccc(-c3nnc4ccc([C@@H](N5CC[C@H](N)C5)C(F)(F)F)cn34)nc12 [Example 283, (R)-1-(2-(6-((R)-1-((S)-3-aminopyrrolidin-1-yl)-2,2,2-trifluoroethyl)-[1,2,4]triazolo[4,3-a]pyridin-3-yl)quinolin-8-yloxy)propan-2-ol formate]
0.38	459	1.6	CCC(C)(C)C(=O)OCCOc1cc2nc(-c3nnc4ccc([C@@H](N5CC[C@H](N)C5)C(F)(F)F)cn34)ccc2cc1F [Example 289, 2-(2-(6-((R)-1-((S)-3-aminopyrrolidin-1-yl)-2,2,2-trifluoroethyl)-[1,2,4]triazolo[4,3-a]pyridin-3-yl)-6-fluoroquinolin-7-yloxy)ethyl 2,2-dimethylbutanoate]
